Where two headings read alike, the source gives them in different places.
What was measured:
[1] = system: spores of the Bacillus atrophaeus; details: 50° C., 1.74 mg/L; for Observation result: excitation 365 nm
Method: A bacterial carrier on each indicator includes about 106 spores of the Bacillus atrophaeus. The six indicators are divided into three groups, each of which has two indicators. […] A treatment for 0 sec at 50° C. means that no treatment is performed, and is a control group; a treatment for 20 sec at 50° C. simulates a condition of incomplete sterilization; and treatment for 60 sec at 50° C. simulates a condition of successful sterilization where all the spores are supposed to be skilled theoretically. An exposure position of the indicator is located at a cold spot of a sterilization device. A sample subjected to the sterilization treatment is transferred onto a bechtop. Bacteria strips included in the biological indicators in the three groups after the sterilization treatment are taken out by means of sterilized tweezers, put in a sterile centrifuge tube, added with an appropriate quantity of sterile recovered liquid (0.1% polysorbate 80, and 0.03 M phosphate buffer liquid with pH being 7.2), fully oscillated and crushed. Afterwards, the centrifuge tube is put in an ice-bath for cooling.
Then, a sample in the centrifuge tube is subjected to centrifugation (a centrifugal force being 2000×g, a temperature being 4° C. and a centrifugation duration being 20 min), an obtained supernatant passes through a 10 μm millipore filter (a spore diameter is 1 μm to 2 μm, so in order to make the spores pass through the filter and the bacteria strip slags are blocked, a filter of 2 μm or above is needed), so as to obtain filtrate.
An appropriate amount of sterile recovered liquid is added into filtered slags (a main component is a crushed bacteria strip fiber) obtained after the above centrifugal filtration, after oscillating and shaking well, the above centrifugal filtration process is repeated, filtrate including thermal-damaged spores is further recovered, repetition is performed for 2 to 3 times like this, and the filtrate obtained by each centrifugal filtration is gathered as the spore suspension.
(§1) One drop of the liquid medium (30 g/L agar and 15 g/L tryptic soy broth) subjected to high-temperature sterilization is dropwise added onto an object slide, after this drop of the liquid medium is solidified, one drop of the 4-MUG with a concentration being 210 mg/L is dropwise added onto the solid medium, and a moment later, the 4-MUG fully infiltrates into the solid medium.
(§2) One drop of the spore suspension (including the thermal-damaged spores) is dropwise added onto the solid medium.
The number and sizes of fluorescent spots are observed under the observation system. […]

[2] = system: spore strips produced by Xinhua Mesa®Strip; details: 50° C., 1.74 mg/L; for Observation result: excitation 365 nm
Method: This embodiment selects six spore strips produced by Xinhua Mesa®Strip, which are divided into three groups and each group has two strips. […] A treatment for 0 sec at 50° C. means that no treatment is performed, and is a control group; a treatment for 20 sec at 50° C. simulates a condition of incomplete sterilization; and treatment for 60 sec at 50° C. simulates a condition of successful sterilization where all the spores are supposed to be skilled theoretically. An exposure position of the indicator is located at a cold spot of a sterilization device. A sample subjected to the sterilization treatment is transferred onto a bechtop. Bacteria strips included in the biological indicators in the three groups after the sterilization treatment are taken out by means of sterilized tweezers, put in a sterile centrifuge tube, added with an appropriate amount of sterile recovered liquid (0.1% polysorbate 80, and 0.03 M phosphate buffer liquid with pH being 7.2), fully oscillated and crushed. Afterwards, the centrifuge tube is put in an ice-bath for cooling.
as §1, §2
The number and sizes of fluorescent spots are observed under the observation system. The observation system is composed of four parts: 1) a stereoscopic microscope (a brand model may be: Nikon SMZ800); 2) a time gating camera (a brand model may be: Photonics Research Systems, Salford, UK) mounted on the above stereoscopic microscope; 3) a xenon flash lamp (a brand model may be: PerkinElmer, Waltham, MA) forming a 45° angle relative to a sample; and 4) a temperature-controlled microscope object slide stand (a brand model may be: Thermal).
Parameters set for the observation system are as follows: the xenon flash lamp has an excitation wavelength of 365 nm and an excitation slit width of 10 nm. Observed by the stereoscopic microscope, an emission wavelength is 544 nm, and an emission slit is 10 nm.

With `OO` [hydrogen peroxide] the Conclusion ([1]; 20 sec) was “Incomplete”, the Observation result ([1]; 20 sec) was “A certain quantity of scattered” and the Conclusion ([1]; 60 sec) was “Complete”. The Observation result ([1]; 60 sec) was “No fluorescent spot”, the Conclusion ([2]; 20 sec) was “Incomplete” and the Observation result ([2]; 20 sec) was “A certain quantity of scattered”. The Conclusion ([2]; 60 sec) was “Complete” and the Observation result ([2]; 60 sec) was “No fluorescent spot”.

Source: patent US20240417773A1 (priority 2022, published 2024)
